Data: US10526337B2, “Heteroaryl derivative or pharmaceutically acceptable salt thereof, preparation method therefor, and pharmaceutical composition for preventing or treating diseases associated with PI3 kinases, containing same as active ingredient” (KOREA RESEARCH INSTITUTE OF CHEMICAL TECHNOLOGY, priority 2015, dated 2020)
pIC50: −log10 of the molar value.

Tests used:
[1] = molecular target: T1, PI3 Kinase (p120γ) (h) (Homo sapiens, UniProt P48736); experiment: Inhibition of phosphatidylinositol 3-kinase gamma (PI3K γ), pAkt Western blotting in C5a-stimulated RAW264.7 macrophages; type: cell-based, mouse; details: ATP=10 uM, sample concentration=100 nM
T1 construct: endogenous in cells; host or cells: RAW264.7
Description: (§1) The stimulated cells were transferred in a 1.5 mL tube, followed by centrifugation at 3000 rpm for 1 minute. 100 μL of RIPA buffer (radioimmunoprecipitation assay buffer, 50 mM Tris-HCl, 5 mM EDTA, 150 mM NaCl, 1% NP-40, 1 mM PMSF, pH 8.0; ELPIS, Korea) was added thereto, which was stored in a 4° C. refrigerator for 12 hours. Centrifugation was performed at 4° C. at 14,000 rpm for 20 minutes. The supernatant was transferred into a new 1.5 mL tube. Protein was quantified by BCA (bicinchoninic acid) method and samples were prepared. The composition of the sample was as follows: sample buffer (ELPIS, EBA-1052) 5×, protein 10 μg, and 1× sample buffer to make the total volume 20 μL. The sample was heated at 100° C. for 5 minutes. The evaporated water vapor was condensed in a refrigerator. The liquid stained on the wall was fallen down by centrifugation for a few seconds. The sample proceeded to 10% SDS (Sodium Dodecyl Sulfate) acrylamide gel for separation. The separated protein was transferred onto PVDF (poly-vinyl difluoride) membrane, followed by reaction with pAkt (phospho protein kinase B) antibody (Ser473 or Thr308; Cell signaling, 9271s or 13038s) for 12 hours at 4° C. The membrane was washed with TBST (Tris-Buffered Saline with Tween 20, 10 mM Tris-HCl, pH 7.5, 150 mM NaCl, 0.1% Tween-20) three times for 5 minutes each, to which the secondary antibody (rabbit antibody, Santacruz, sc-2004) was added, followed by reaction at room temperature for 2 hours. The membrane was washed with TBST three times for 10 minutes each, to which ECL (enhanced chemiluminescence, Thermo, NCI34095KR) was sprayed. Bands were investigated by using LAS-3000.
The inhibition of phosphatidylinositol 3 kinase gamma (PI3K γ) by those compounds prepared in Examples 1˜98 was investigated by the following experiment. The inhibition activity of each compound was measured in the following conditions: ATP=10 uM, and sample concentration=100 nM.
(§2) Macrophages (RAW264.7) cultured in DMEM (Dulbecco's Modified Eagle Medium, Hyclon, SH30243.01) supplemented with 10% fetal bovine serum (Hyclon, USA) were distributed in a 12-well plate at the density of 1,000,000 cells/well. The cells were stabilized in a 37° C. CO2 for 24 hours and then treated with each compound for 1 and half hours. The cells were treated with 10 ng/mL of C5a (complement component 5a, 10 μg/mL; R&D, 2150-C5) to increase the intracellular activity of PI3K gamma. 5 minutes later, the medium was discarded and the cells were washed with cold PBS (phosphate buffered saline, Gibco, 14190-250). PBS was then eliminated completely by using a pipette. Western blotting was performed according to the same manner as described in step 2 of Experimental Example 1 to evaluate the intracellular PI3K gamma activity.

[2] = molecular target: T2, PI3 Kinase (p110δ/p85α) (h) (Homo sapiens, UniProt O00329); experiment: Inhibition of phosphatidylinositol 3-kinase delta (PI3K δ), pAkt Western blotting in IgM-stimulated Raji cells; type: cell-based; details: ATP=10 uM, sample concentration=100 nM
T2 construct: endogenous in cells; host or cells: Raji
Description: as §1
The inhibition of phosphatidylinositol 3 kinase delta (PI3K δ) by those compounds prepared in Examples 1˜98 was investigated by the following experiment. The inhibition activity of each compound was measured in the following conditions: ATP=10 uM, and sample concentration=100 nM.
as §2, with “Raji cells” for “Macrophages (RAW264.7)”, “RPMI1640 (Hyclone, SH30027.02)” for “DMEM (Dulbecco's Modified Eagle Medium, Hyclon, SH30243.01)”, “0.25 μg/mL” for “10 ng/mL”, “IgM (immunoglobulin M, Southern Biotech, USA)” for “C5a (complement component 5a, 10 μg/mL; R&D, 2150-C5)”, “delta. 30” for “gamma. 5”, “delta” for “gamma”

T2 sequence (O00329 whole entry): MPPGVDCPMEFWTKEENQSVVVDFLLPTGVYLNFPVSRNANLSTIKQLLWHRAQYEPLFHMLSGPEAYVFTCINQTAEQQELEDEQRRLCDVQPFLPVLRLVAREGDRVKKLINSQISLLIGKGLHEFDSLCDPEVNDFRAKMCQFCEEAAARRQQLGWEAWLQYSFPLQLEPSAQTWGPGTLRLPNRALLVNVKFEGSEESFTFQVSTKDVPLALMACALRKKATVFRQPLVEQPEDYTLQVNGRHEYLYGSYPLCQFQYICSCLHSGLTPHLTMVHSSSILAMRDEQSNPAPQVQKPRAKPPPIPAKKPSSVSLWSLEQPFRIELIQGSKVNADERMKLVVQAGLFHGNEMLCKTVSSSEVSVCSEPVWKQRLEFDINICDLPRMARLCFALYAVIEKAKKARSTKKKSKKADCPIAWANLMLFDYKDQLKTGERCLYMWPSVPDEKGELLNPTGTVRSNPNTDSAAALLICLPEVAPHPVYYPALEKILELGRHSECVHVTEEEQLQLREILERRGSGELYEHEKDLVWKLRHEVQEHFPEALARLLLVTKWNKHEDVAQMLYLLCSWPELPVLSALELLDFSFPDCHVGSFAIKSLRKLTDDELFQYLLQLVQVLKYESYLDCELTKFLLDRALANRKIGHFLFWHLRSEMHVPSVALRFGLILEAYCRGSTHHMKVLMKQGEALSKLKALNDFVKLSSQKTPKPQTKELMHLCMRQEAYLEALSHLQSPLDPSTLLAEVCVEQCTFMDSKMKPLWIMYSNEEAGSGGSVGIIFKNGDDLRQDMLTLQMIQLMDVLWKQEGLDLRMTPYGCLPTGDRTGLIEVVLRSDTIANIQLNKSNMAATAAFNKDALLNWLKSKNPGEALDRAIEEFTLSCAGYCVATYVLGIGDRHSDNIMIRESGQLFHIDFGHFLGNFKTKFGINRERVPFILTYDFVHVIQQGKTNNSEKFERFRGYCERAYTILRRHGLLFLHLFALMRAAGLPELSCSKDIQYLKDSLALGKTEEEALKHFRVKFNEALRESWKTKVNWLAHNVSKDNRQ
T2 sequence (P27986 whole entry partner): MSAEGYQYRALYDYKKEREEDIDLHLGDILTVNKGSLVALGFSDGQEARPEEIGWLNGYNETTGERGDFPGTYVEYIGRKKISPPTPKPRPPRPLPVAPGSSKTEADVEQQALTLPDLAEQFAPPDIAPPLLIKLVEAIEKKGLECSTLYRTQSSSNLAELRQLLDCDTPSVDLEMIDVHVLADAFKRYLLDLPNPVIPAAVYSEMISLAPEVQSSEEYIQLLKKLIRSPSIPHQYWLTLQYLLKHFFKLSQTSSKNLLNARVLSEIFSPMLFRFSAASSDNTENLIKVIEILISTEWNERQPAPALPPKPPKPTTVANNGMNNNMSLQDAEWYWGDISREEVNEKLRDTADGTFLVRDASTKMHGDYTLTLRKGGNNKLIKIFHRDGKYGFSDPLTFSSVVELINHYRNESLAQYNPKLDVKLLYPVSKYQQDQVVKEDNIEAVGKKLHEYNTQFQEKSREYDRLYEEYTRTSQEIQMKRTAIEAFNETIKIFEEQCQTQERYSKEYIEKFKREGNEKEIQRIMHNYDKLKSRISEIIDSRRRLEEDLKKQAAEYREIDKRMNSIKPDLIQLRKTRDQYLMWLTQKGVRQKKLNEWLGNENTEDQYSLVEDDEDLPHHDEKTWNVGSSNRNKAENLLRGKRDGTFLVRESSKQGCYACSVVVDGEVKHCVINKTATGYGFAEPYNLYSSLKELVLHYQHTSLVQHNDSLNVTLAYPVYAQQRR
T1 sequence (P48736 whole entry): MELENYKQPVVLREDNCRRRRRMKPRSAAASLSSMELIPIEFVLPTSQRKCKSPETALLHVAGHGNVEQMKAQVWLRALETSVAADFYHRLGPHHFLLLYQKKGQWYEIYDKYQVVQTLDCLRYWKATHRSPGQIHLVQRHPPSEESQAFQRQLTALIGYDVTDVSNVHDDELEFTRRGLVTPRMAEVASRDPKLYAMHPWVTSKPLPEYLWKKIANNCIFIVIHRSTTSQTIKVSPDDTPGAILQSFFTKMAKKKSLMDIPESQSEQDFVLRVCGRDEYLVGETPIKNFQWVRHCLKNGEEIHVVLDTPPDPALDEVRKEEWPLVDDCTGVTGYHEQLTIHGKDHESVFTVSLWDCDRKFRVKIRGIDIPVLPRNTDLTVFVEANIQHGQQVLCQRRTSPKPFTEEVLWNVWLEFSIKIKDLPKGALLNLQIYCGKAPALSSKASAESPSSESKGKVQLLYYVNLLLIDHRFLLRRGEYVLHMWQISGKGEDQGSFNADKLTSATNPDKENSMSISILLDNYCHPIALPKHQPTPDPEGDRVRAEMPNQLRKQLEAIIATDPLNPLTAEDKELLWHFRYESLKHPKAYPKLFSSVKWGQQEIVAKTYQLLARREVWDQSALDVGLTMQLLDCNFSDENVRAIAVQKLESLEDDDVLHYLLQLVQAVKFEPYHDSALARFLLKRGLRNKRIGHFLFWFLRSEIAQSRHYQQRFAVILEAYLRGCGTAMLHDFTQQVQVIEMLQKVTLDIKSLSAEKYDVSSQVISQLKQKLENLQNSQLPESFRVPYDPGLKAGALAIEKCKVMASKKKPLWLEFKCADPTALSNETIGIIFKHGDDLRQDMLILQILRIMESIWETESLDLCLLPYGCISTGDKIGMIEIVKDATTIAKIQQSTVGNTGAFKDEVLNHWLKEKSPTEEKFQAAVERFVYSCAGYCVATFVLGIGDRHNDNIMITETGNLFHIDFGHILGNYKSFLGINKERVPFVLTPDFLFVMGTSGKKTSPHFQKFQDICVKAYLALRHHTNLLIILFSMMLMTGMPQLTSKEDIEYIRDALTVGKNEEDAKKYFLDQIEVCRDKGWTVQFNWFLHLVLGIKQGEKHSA

Compound	pIC50 [1]	pIC50 [2]
CC[C@H](Nc1nc(N)nc2c1C(=O)N(C)CN2)c1nc2cccc(F)c2c(=O)n1-c1ccccc1 [Example 54, (S)-7-amino-5-((1-(5-fluoro-4-oxo-3-phenyl-3,4-dihydroquinazoline-2-yl)propyl)amino)-3-methyl-2,3-dihydropyrimido[4,5-d]pyrimidine-4(1H)-one]	6.30 to 8.00	6.30 to 8.00
CN1CNc2nc(N)nc(N3CCC[C@H]3c3nc4cccc(Cl)c4c(=O)n3-c3ccccc3)c2C1=O [Example 55, (S)-7-amino-5-(2-(5-chloro-4-oxo-3-phenyl-3,4-dihydroquinazoline-2-yl)pyrrolidine-1-yl)-3-methyl-2,3-dihydropyrimido[4,5-d]pyrimidine-4(1H)-one]	6.30 to 8.00	6.30 to 8.00
CN1CNc2nc(N)nc(N3CCC[C@H]3c3nc4cccc(Cl)c4c(=O)n3-c3cccnc3)c2C1=O [Example 56, (S)-7-amino-5-(2-(5-chloro-4-oxo-3-(pyridine-3-yl)-3,4-dihydroquinazoline-2-yl)pyrrolidine-1-yl)-3-methyl-2,3-dihydropyrimido[4,5-d]pyrimidine-4(1H)-one]	< 6.30	< 6.30
CN1CNc2nc(N)nc(N3CCC[C@H]3c3nc4cccc(Cl)c4c(=O)n3-c3cccc(F)c3)c2C1=O [Example 57, (S)-7-amino-5-(2-(5-chloro-3-(3-fluorophenyl)-4-oxo-3,4-dihydroquinazoline-2-yl)pyrrolidine-1-yl)-3-methyl-2,3-dihydropyrimido[4,5-d]pyrimidine-4(1H)-one]	6.30 to 8.00	< 6.30
Cc1cccc(-n2c([C@@H]3CCCN3c3nc(N)nc4c3C(=O)N(C)CN4)nc3cccc(Cl)c3c2=O)c1 [Example 58, (S)-7-amino-5-(2-(5-chloro-4-oxo-3-(m-tolyl)-3,4-dihydroquinazoline-2-yl)pyrrolidine-1-yl)-3-methyl-2,3-dihydropyrimido[4,5-d]pyrimidine-4(1H)-one]	< 6.30	< 6.30
CN1CNc2nc(N)nc(N3CCC[C@H]3c3cc4cccc(Cl)c4c(=O)n3-c3ccccc3)c2C1=O [Example 59, (S)-7-amino-5-(2-(8-chloro-1-oxo-2-phenyl-1,2-dihydroisoquinoline-3-yl)pyrrolidine-1-yl)-3-methyl-2,3-dihydropyrimido[4,5-d]pyrimidine-4(1H)-one]	< 6.30	< 6.30
CC(C)N1CNc2ncnc(N[C@@H](C)c3cc4cccc(Cl)c4c(=O)n3-c3ccccc3)c2C1=O [Example 64, (S)-5-(1-(8-chloro-1-oxo-2-phenyl-1,2-dihydroisoquinoline-3-yl)ethylamino)-3-isopropyl-2,3-dihydropyrimido[4,5-d]pyrimidine-4(1H)-one]	< 6.30	< 6.30
CC[C@H](Nc1ncnc2c1C(=O)N(C(C)C)CN2)c1nc2cccc(F)c2c(=O)n1-c1ccccc1 [Example 65, (S)-5-(1-(5-fluoro-4-oxo-3-phenyl-3,4-dihydroquinazoline-2-yl)propylamino)-3-isopropyl-2,3-dihydropyrimido[4,5-d]pyrimidine-4(1H)-one]	< 6.30	< 6.30
C[C@H](Nc1ncnc2[nH]cnc(=O)c12)c1nc2cccc(Cl)c2c(=O)n1-c1ccccc1 [Example 66, (S)-5-((1-(5-chloro-4-oxo-3-phenyl-3,4-dihydroquinazoline-2-yl)ethyl)amino)pyrimido[4,5-d]pyrimidine-4(1H)-one]	< 6.30	6.30 to 8.00
C[C@H](Nc1ncnc2[nH]cnc(=O)c12)c1nc2cccc(Cl)c2c(=O)n1-c1cccnc1 [Example 67, (S)-5-((1-(5-chloro-4-oxo-3-(pyridine-3-yl)-3,4-dihydroquinazoline-2-yl)ethyl)amino)pyrimido[4,5-d]pyrimidine-4(1H)-one]	< 6.30	< 6.30
C[C@H](Nc1ncnc2[nH]cnc(=O)c12)c1nc2cccc(Cl)c2c(=O)n1-c1cccc(F)c1 [Example 68, (S)-5-((1-(5-chloro-3-(3-fluorophenyl)-4-oxo-3,4-dihydroquinazoline-2-yl)ethyl)amino)pyrimido[4,5-d]pyrimidine-4(1H)-one]	< 6.30	< 6.30
Cc1cccc(-n2c([C@H](C)Nc3ncnc4[nH]cnc(=O)c34)nc3cccc(Cl)c3c2=O)c1 [Example 69, (S)-5-((1-(5-chloro-4-oxo-3-(m-tolyl)-3,4-dihydroquinazoline-2-yl)ethyl)amino)pyrimido[4,5-d]pyrimidine-4(1H)-one]	< 6.30	6.30 to 8.00
C[C@H](Nc1ncnc2[nH]cnc(=O)c12)c1cc2cccc(Cl)c2c(=O)n1-c1ccccc1 [Example 70, (S)-5-((1-(8-chloro-1-oxo-2-phenyl-1,2-dihydroisoquinoline-3-yl)ethyl)amino)pyrimido[4,5-d]pyrimidine-4(1H)-one]	6.30 to 8.00	6.30 to 8.00
C[C@H](Nc1ncnc2[nH]cnc(=O)c12)c1nn2ccc(Cl)c2c(=O)n1-c1ccccc1 [Example 71, (S)-5-((1-(5-chloro-4-oxo-3-phenyl-3,4-dihydropyrrolo[2,1-f][1,2,4]triazine-2-yl)ethyl)amino)pyrimido[4,5-d]pyrimidine-4(1H)-one]	< 6.30	6.30 to 8.00
C[C@H](Nc1ncnc2[nH]cnc(=O)c12)c1cc2ccccc2nc1-c1ccccc1 [Example 72, (S)-5-((1-(2-phenylquinoline-3-yl)ethyl)amino)pyrimido[4,5-d]pyrimidine-4(1H)-one]	< 6.30	< 6.30
CC[C@H](Nc1ncnc2[nH]cnc(=O)c12)c1nc2cccc(F)c2c(=O)n1-c1ccccc1 [Example 73, (S)-5-((1-(5-fluoro-4-oxo-3-phenyl-3,4-dihydroquinazoline-2-yl)propyl)amino)pyrimido[4,5-d]pyrimidine-4(1H)-one]	< 6.30	< 6.30
O=c1nc[nH]c2ncnc(N3CCC[C@H]3c3nc4cccc(Cl)c4c(=O)n3-c3ccccc3)c12 [Example 74, (S)-5-(2-(5-chloro-4-oxo-3-phenyl-3,4-dihydroquinazoline-2-yl)pyrrolidine-1-yl)pyrimido[4,5-d]pyrimidine-4(1H)-one]	< 6.30	< 6.30
O=c1nc[nH]c2ncnc(N3CCC[C@H]3c3cc4cccc(Cl)c4c(=O)n3-c3cccnc3)c12 [Example 75, (S)-5-(2-(8-chloro-1-oxo-2-(pyridine-3-yl)-1,2-dihydroisoquinoline-3-yl)pyrrolidine-1-yl)pyrimido[4,5-d]pyrimidine-4(1H)-one]	< 6.30	6.30 to 8.00
O=c1nc[nH]c2ncnc(N3CCC[C@H]3c3nc4cccc(Cl)c4c(=O)n3-c3cccnc3)c12 [Example 76, (S)-5-(2-(5-chloro-4-oxo-3-(pyridine-3-yl)-3,4-dihydroquinazoline-2-yl)pyrrolidine-1-yl)pyrimido[4,5-d]pyrimidine-4(1H)-one]	< 6.30	< 6.30
O=c1nc[nH]c2ncnc(N3CCC[C@H]3c3nc4cccc(Cl)c4c(=O)n3-c3cccc(F)c3)c12 [Example 77, (S)-5-(2-(5-chloro-3-(3-fluorophenyl)-4-oxo-3,4-dihydroquinazoline-2-yl)pyrrolidine-1-yl)pyrimido[4,5-d]pyrimidine-4(1H)-one]	< 6.30	< 6.30
